Assay results published in PubChem BioAssay (NCI).
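Assay format: 96-well plates, 48-hour exposure. GI50 marks 50% less growth. At the TGI there is no net growth.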

Experiments:
Assay in all cases: NCI tumour cell line growth inhibition, 48 h
COLO 205 colon = tested on: COLO 205 colon
OVCAR-3 ovarian = tested on: OVCAR-3 ovarian
SK-MEL-28 melanoma = tested on: SK-MEL-28 melanoma
KM20L2 colon = tested on: KM20L2 colon
LXFL 529 NSCLC = tested on: LXFL 529 NSCLC
DLD-1 colon = tested on: DLD-1 colon
DMS 114 small cell lung = tested on: DMS 114 small cell lung
XF 498 CNS = tested on: XF 498 CNS
DMS 273 small cell lung = tested on: DMS 273 small cell lung
M19-MEL melanoma = tested on: M19-MEL melanoma
SNB-78 CNS = tested on: SNB-78 CNS
HOP-18 NSCLC = tested on: HOP-18 NSCLC
SN12K1 renal = tested on: SN12K1 renal
P388/ADR leukemia = tested on: P388/ADR leukemia
P388 leukemia = tested on: P388 leukemia

## CCN(CC)CCNc1ccc([N+](=O)[O-])c2nc3ccccc3c(N)c12
COLO 205 colon
  TGI: 1.47 µM
OVCAR-3 ovarian
  TGI: 5.13 µM

## OC(c1cc(C(O)(C(F)(F)F)C(F)(F)F)ncn1)(C(F)(F)F)C(F)(F)F
COLO 205 colon
  TGI: > 10 µM
OVCAR-3 ovarian
  TGI: > 10 µM
SK-MEL-28 melanoma
  TGI: > 10 µM

## COCCc1c(C)c(C#N)c2n(C)c3ccccc3n2c1=O
COLO 205 colon
  TGI: > 10 µM
OVCAR-3 ovarian
  TGI: > 10 µM
SK-MEL-28 melanoma
  TGI: > 10 µM

## NS(=O)(=O)c1ccc(NNC(=O)c2cccc3c(=O)c4ccccc4[nH]c23)cc1
COLO 205 colon
  TGI: > 100 µM
OVCAR-3 ovarian
  TGI: > 100 µM
SK-MEL-28 melanoma
  TGI: > 100 µM

## NNC(N)=Nc1cccc2ccccc12
COLO 205 colon
  TGI: > 100 µM
SK-MEL-28 melanoma
  TGI: > 100 µM

## ON=C1CCCCC(=NO)CCCC1
COLO 205 colon
  TGI: > 100 µM
SK-MEL-28 melanoma
  TGI: > 100 µM

## COC(=O)N1CC[C@@H]2CCC=C(c3cccc4c3OCO4)[C@@H]21
COLO 205 colon
  TGI: > 100 µM
OVCAR-3 ovarian
  TGI: > 100 µM
SK-MEL-28 melanoma
  TGI: > 100 µM

## CCCCc1ccc(Nc2nc3c(ncn3C3OC(COC(C)=O)C(OC(C)=O)C3OC(C)=O)c(=O)[nH]2)cc1 (stereo unspecified)
COLO 205 colon
  TGI: 37.7 µM
OVCAR-3 ovarian
  TGI: 31.6 µM

## CC(C)(C)OC(=O)N1C(C2=COc3ccccc3O2)=COc2ccccc21
COLO 205 colon
  TGI: 38.2 µM
OVCAR-3 ovarian
  TGI: 47.2 µM
SK-MEL-28 melanoma
  TGI: 87.5 µM

## O=C1C(NS(=O)(=O)c2ccccc2)=C(n2cnc3ccccc32)C(=O)c2ccccc21
COLO 205 colon
  TGI: > 100 µM
OVCAR-3 ovarian
  TGI: > 100 µM
SK-MEL-28 melanoma
  TGI: > 100 µM

## Nn1c(CNc2ccc(-c3nnc(Nc4ccc(Cl)cc4)n3N)cc2)nnc1Nc1ccc(Cl)cc1
COLO 205 colon
  TGI: > 100 µM
SK-MEL-28 melanoma
  TGI: > 100 µM

## N#CS/C(C(Cl)=C(Cl)Cl)=C(/Cl)[N+](=O)[O-]
COLO 205 colon
  TGI: 3.66 µM
OVCAR-3 ovarian
  TGI: 3.1 µM
SK-MEL-28 melanoma
  TGI: 3.45 µM

## Oc1c(C(O)(c2ccccc2)c2ccc3ccccc3c2O)ccc2ccccc12
COLO 205 colon
  TGI: 31.9 µM
OVCAR-3 ovarian
  TGI: 30.8 µM
SK-MEL-28 melanoma
  TGI: 33.3 µM

## Clc1cc2nc(C3CCCO3)[nH]c2cc1Cl (stereo unspecified)
COLO 205 colon
  TGI: > 100 µM
OVCAR-3 ovarian
  TGI: > 100 µM
SK-MEL-28 melanoma
  TGI: > 100 µM

## COC(=O)C12CCC(C(=O)OC)(Cc3c(c4ccccc4n3S(=O)(=O)c3ccccc3)C1)C2=O (stereo unspecified)
COLO 205 colon
  TGI: > 100 µM
OVCAR-3 ovarian
  TGI: > 100 µM
SK-MEL-28 melanoma
  TGI: > 100 µM

## CCN(CC)CCN1C(=O)c2cccc3c(-c4ccc5c(c4)ncn5C4CCCCC4)ccc(c23)C1=O
OVCAR-3 ovarian
  GI50: 1.73 µM
  TGI: 3.64 µM
SK-MEL-28 melanoma
  GI50: 1.63 µM
  TGI: 3.1 µM

## CC(/C=C/c1ncccc1OCCCCCC(=O)O)=N\NC1=NCCN1
COLO 205 colon
  TGI: > 100 µM
KM20L2 colon
  TGI: > 100 µM
LXFL 529 NSCLC
  TGI: > 100 µM
DLD-1 colon
  TGI: > 100 µM
DMS 114 small cell lung
  TGI: > 100 µM
XF 498 CNS
  TGI: > 100 µM
DMS 273 small cell lung
  TGI: > 100 µM
M19-MEL melanoma
  TGI: > 100 µM
OVCAR-3 ovarian
  TGI: > 100 µM
SK-MEL-28 melanoma
  TGI: > 100 µM

## CCCCCCc1nn2c(-c3ccc(C)cc3)nnc2s1
COLO 205 colon
  TGI: > 100 µM
OVCAR-3 ovarian
  TGI: > 100 µM
SK-MEL-28 melanoma
  TGI: > 100 µM

## NS(=O)(=O)c1nnc(NC(=O)CCC(=O)O)s1
COLO 205 colon
  TGI: > 100 µM
OVCAR-3 ovarian
  TGI: > 100 µM
SK-MEL-28 melanoma
  TGI: > 100 µM

## CCOC(=O)C(SCCO)C(C(=O)OCC)n1ccc(N)nc1=O (stereo unspecified)
COLO 205 colon
  TGI: > 100 µM
OVCAR-3 ovarian
  TGI: > 100 µM
SK-MEL-28 melanoma
  TGI: > 100 µM

## c1ccc(Cc2cccc3cc(-c4ccc(-c5ccccc5)cc4)[nH]c23)cc1
COLO 205 colon
  TGI: > 100 µM
OVCAR-3 ovarian
  TGI: > 100 µM
SK-MEL-28 melanoma
  TGI: > 100 µM

## CC(=O)OCC1C(C(C)OC(C)=O)CCC2C1CCC1(C)C(OC(C)=O)CCC21 (stereo unspecified)
OVCAR-3 ovarian
  TGI: 41.9 µM
SK-MEL-28 melanoma
  TGI: 29.1 µM

## CCCCC1Cc2cc(O)ccc2-c2n1c1cc(O)ccc1[n+]2C (stereo unspecified) (tested in a mixture with another compound)
COLO 205 colon
  TGI: 44.2 µM
OVCAR-3 ovarian
  TGI: 98.7 µM
SK-MEL-28 melanoma
  TGI: 74.3 µM

## COc1cc(N=C(N)N=C(N)N)c2ncccc2c1
COLO 205 colon
  TGI: > 100 µM
OVCAR-3 ovarian
  TGI: > 100 µM
SK-MEL-28 melanoma
  TGI: > 100 µM

## CN(C)c1nc(N(C)C)nc(N(C)CN(C)c2ccccc2)n1
LXFL 529 NSCLC
  TGI: > 100 µM
SNB-78 CNS
  TGI: > 100 µM
HOP-18 NSCLC
  TGI: > 100 µM
DMS 114 small cell lung
  TGI: > 100 µM
XF 498 CNS
  TGI: > 100 µM
M19-MEL melanoma
  TGI: > 100 µM
OVCAR-3 ovarian
  TGI: > 100 µM
SK-MEL-28 melanoma
  TGI: > 100 µM

## CC1=C(C)C(=O)OC(C(C)(O)C2(O)CCC3(O)C4CC(Cl)C5(O)C(O)C=CC(=O)C5(C)C4CCC32C)C1 (stereo unspecified)
COLO 205 colon
  TGI: 42.8 µM
OVCAR-3 ovarian
  TGI: > 100 µM
SK-MEL-28 melanoma
  TGI: > 100 µM

## CC(C)OP(=O)(OC(C)C)C(C(F)(F)F)C(F)(F)F
COLO 205 colon
  TGI: > 100 µM
OVCAR-3 ovarian
  TGI: > 100 µM
SK-MEL-28 melanoma
  TGI: > 100 µM

## O=C(O)CC(NC(=O)C(F)(F)F)C(=O)NC1Cc2ccccc2OC1=O (stereo unspecified)
OVCAR-3 ovarian
  TGI: > 100 µM
SK-MEL-28 melanoma
  TGI: > 100 µM

## CCCCCCCCCc1cc(O)c(O)cc1CCCCCCCCC
COLO 205 colon
  TGI: > 10 µM
OVCAR-3 ovarian
  TGI: > 10 µM
SK-MEL-28 melanoma
  TGI: > 10 µM

## COc1cc(Cn2c3c(c4c(CN(C)C)c(O)ccc42)C(=O)c2ccccc2C3=O)cc(OC)c1
COLO 205 colon
  TGI: 85.3 µM
OVCAR-3 ovarian
  TGI: 90.5 µM
SK-MEL-28 melanoma
  TGI: 29.2 µM

## Cn1c(-c2ccccc2)cc(-c2ccc3c(c2)OCO3)c1-c1cccs1
COLO 205 colon
  TGI: > 100 µM
OVCAR-3 ovarian
  TGI: > 100 µM
SK-MEL-28 melanoma
  TGI: > 100 µM

## O=C(Nc1ccc(Cl)cc1)c1cc(S(=O)(=O)Nc2n[nH]c(=O)[nH]2)c(SSc2cc(Cl)c(C(=O)Nc3ccc(Cl)cc3)cc2S(=O)(=O)Nc2n[nH]c(=O)[nH]2)cc1Cl
COLO 205 colon
  TGI: > 100 µM
OVCAR-3 ovarian
  TGI: > 100 µM
SK-MEL-28 melanoma
  TGI: > 100 µM

## C/C(Cl)=N\OC(=O)Nc1ccc([N+](=O)[O-])cc1
COLO 205 colon
  TGI: 5.85 µM
OVCAR-3 ovarian
  TGI: 6.1 µM
SK-MEL-28 melanoma
  TGI: 31.5 µM

## CC1=CC(c2ccccc2)OP1(=O)c1ccccc1 (stereo unspecified)
COLO 205 colon
  TGI: > 100 µM
OVCAR-3 ovarian
  TGI: > 100 µM
SK-MEL-28 melanoma
  TGI: > 100 µM

## C/C(CC(O)(C(F)(F)F)C(F)(F)F)=N\N
COLO 205 colon
  TGI: > 10 µM
OVCAR-3 ovarian
  TGI: > 10 µM
SK-MEL-28 melanoma
  TGI: > 10 µM

## Cc1cccc2c1Oc1cc(Cl)ccc1C2NC(=O)CCN1CCCCC1 (stereo unspecified)
COLO 205 colon
  TGI: 34.6 µM
SK-MEL-28 melanoma
  TGI: 29.2 µM

## COCCO
SN12K1 renal
  TGI: > 100 µM
COLO 205 colon
  TGI: > 100 µM
KM20L2 colon
  TGI: > 100 µM
P388/ADR leukemia
  TGI: > 100 µM
OVCAR-3 ovarian
  TGI: > 100 µM
SK-MEL-28 melanoma
  TGI: > 100 µM
P388 leukemia
  TGI: > 100 µM

## C=CCn1c2ccccc2c2c(C)c3cnccc3c(C)c21
SN12K1 renal
  TGI: 52.5 µM
COLO 205 colon
  TGI: 72.5 µM
KM20L2 colon
  TGI: 112 µM
P388/ADR leukemia
  TGI: 37.3 µM
DLD-1 colon
  TGI: > 121 µM
SNB-78 CNS
  TGI: 125 µM
HOP-18 NSCLC
  TGI: > 125 µM
XF 498 CNS
  TGI: 28.7 µM
DMS 273 small cell lung
  TGI: 37.7 µM
M19-MEL melanoma
  TGI: 58 µM
OVCAR-3 ovarian
  TGI: 48.6 µM
SK-MEL-28 melanoma
  TGI: > 125 µM
P388 leukemia
  TGI: 20.8 µM

## C=C1c2nc3ccccc3n2C=C(c2ccc(Cl)cc2)N1c1ccc(OCCN2CCOCC2)cc1
COLO 205 colon
  TGI: 98.6 µM
OVCAR-3 ovarian
  TGI: > 100 µM
SK-MEL-28 melanoma
  TGI: > 100 µM
